Assay: collision cross section in nitrogen (drift tube, single-field); higher = larger gas-phase ion size
[1] = ion type: [M+H], ion source: ESI, ion mode: Positive
[2] = ion type: [M+Na], ion source: ESI, ion mode: Positive
[3] = ion type: [M-H], ion source: ESI, ion mode: Negative
[4] = ion type: [M+H], ion source: APCI, ion mode: Positive
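Further: chemical standards at 10 µM analysed by drift tube IMS-QTOF MS in about 3.95 torr nitrogen, mean of duplicate injections differing ≤1%, mass error below 10 ppm.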

Row | Compound | collision cross section in nitrogen [1] [Å²] | collision cross section in nitrogen [2] [Å²] | collision cross section in nitrogen [3] [Å²] | collision cross section in nitrogen [4] [Å²] | also measured
1 | CC#C[C@]1(O)CC[C@H]2[C@@H]3CCC4=CC(=O)CCC4=C3[C@@H](c3ccc(N(C)C)cc3)C[C@@]21C [Mifepristone] | 221.9 | 246.2 | 221.9 | – | –
2 | Cc1[nH]c(=O)c(C#N)cc1-c1ccncc1 [Milrinone] | 156.3 | – | 147.4 | 157.1 | –
3 | CN(c1nccc(=O)[nH]1)C1CCN(c2nc3ccccc3n2Cc2ccc(F)cc2)CC1 [Mizolastine] | 203.7 | 209.6 | 204.5 | 204.1 | –
4 | CCCCC(CC)COC(=O)c1ccccc1C(=O)O (configuration not stated) [Mono(2-ethylhexyl) phthalate] | – | 182.1 | 169.2 | – | –
5 | O=C(O)CCCOC(=O)c1ccccc1C(=O)O [Mono(3-carboxypropyl)phthalate] | – | 156.3 | – | – | –
6 | O=C(O)c1ccccc1C(=O)OCc1ccccc1 [Monobenzyl phthalate] | – | 157.4 | 160.8 | – | –
7 | CCCCOC(=O)c1ccccc1C(=O)O [Monobutyl phthalate] | – | – | 151.7 | – | –
8 | C[C@H]1C(=O)O[C@@H]2CCN3CC=C(COC(=O)[C@](C)(O)[C@]1(C)O)[C@H]23 [Monocrotaline] | 175.3 | 178.6 | – | 175.4 | –
9 | O=C(O)c1ccccc1C(=O)OC1CCCCC1 [Monocyclohexyl phthalate] | – | 171.7 | 159.9 | – | –
10 | CCOC(=O)c1ccccc1C(=O)O [Monoethyl phthalate] | – | – | 142 | – | –
11 | O=C(O)c1ccccc1C(=O)O [Monopotassium phthalate] | – | – | 127.6 | – | –
12 | O=C(O)c1ccc(Cl)cc1C(=O)O [Monosodium hydrogen 4-chlorophthalate] | – | – | 132.5 | – | –
13 | CCCCCCCCCCCCCOP(=O)(O)O [Monotridecyl phosphate] | – | – | 169.9 | – | –
14 | CN(C)C(=O)Nc1ccc(Cl)cc1 [Monuron] | 143 | – | 142.4 | 142.7 | –
15 | O=c1c(O)c(-c2ccc(O)cc2O)oc2cc(O)cc(O)c12 [Morin hydrate] | – | – | 164.1 | – | –
16 | CCCCC(C#N)(Cn1cncn1)c1ccc(Cl)cc1 (configuration not stated) [Myclobutanil] | 174.7 | – | – | – | –
17 | CCCCCCCCCCCCCC[N+](C)(C)C [Myristyltrimethylammonium chloride] | – | – | – | – | collision cross section in nitrogen (ion source: APCI, ion mode: Positive, ion type: [M]+ (permanent cation)): 185.2 Å²; collision cross section in nitrogen (ion source: ESI, ion mode: Positive, ion type: [M]+ (permanent cation)): 185.7 Å²
18 | O=C1C=CC(=O)N1c1cccc(N2C(=O)C=CC2=O)c1 [N,N'-1,3-Phenylenedimaleimide] | – | – | 155 | 157.9 | –
19 | c1ccc2cc(Nc3ccc(Nc4ccc5ccccc5c4)cc3)ccc2c1 [N,N'-Di-2-naphthyl-p-phenylenediamine] | – | – | 203.8 | 201.9 | –
20 | CCCCNC(=S)NCCCC [N,N'-Dibutylthiourea] | 148.8 | – | 148.4 | 148.6 | –
21 | CCCCNC(=O)NCCCC [N,N'-Dibutylurea] | 146 | 164.2 | – | 146.3 | –

Source: the supplement of paper PMC12317010
